Measurements: patent US9375436B2, “Androgen treatment in females” (priority 2004, dated 2016)
Values joined by “and” are separate entries in the source; they are usually repeats but may differ in a detail not shown here. Identical values can stand only once.

Assays:
[1] = test system: women with diminished ovarian reserve (DOR); experiment: IVF cycle and PGD outcomes in DHEA-treated women with DOR (Example 4); assay type: in vivo, human
Text: All the IVF cycles performed at the Center for Human Reproduction (CHR) in New York, N.Y., between 2004 and 2006 for cycles performed in women with a diagnosis of DOR were retroactively reviewed. The study population, involving 27 IVF cycles, was selected amongst those cycles which, in addition, had undergone preimplantation genetic diagnosis (PGD).
The diagnosis of DOR was made based on previously reported abnormally high, age stratified baseline FSH levels. In practical terms, this meant that a diagnosis of DOR was reached if baseline FSH levels exceeded the 95% confidence interval of age appropriate levels, independent of prior IVF retrievals and/or oocyte numbers. At, or above age 43, all patients were considered to suffer from DOR, independent of baseline FSH level.
If under age 40, DHEA was given for up to four months prior to IVF. Women of older age received DHEA, if possible, for at least two months.
For the purpose of this analysis, a patient had to be for at least one month (30 days) on DHEA supplementation in order for the IVF cycle to be considered amongst DHEA-treated cycles. All other DOR patients were considered to have received no DHEA treatment. Following this definition, 19 DOR patients had received no DHEA supplementation, and eight had.
All women with DOR, independent of DHEA supplementation, were stimulated with identical protocols, as previously reported in detail elsewhere. In short, they, without exception, received a microdose agonist protocol with maximal goandotropin stimulation of 600 IU to 750 IU daily, with preponderance of FSH, and a smaller daily amount of human menopausal gonadotropin (hMG).
PGD was performed in routine fashion, as also previously described in detail, and involved the analysis of chromosomes X, Y, 13, 16, 18, 21 and 22 by fluorescence in situ hybridization (FISH) on day three after fertilization. Embryo transfer occurred on day five after fertilization.
Patients were represented by only one cycle outcome in each group. If patients had undergone more than one cycle, either with, or without, DHEA supplementation, only their latest cycle was included in the analysis. Three patients underwent both a pre-DHEA and a post-DHEA cycle and in those cases both cycles were included in the analysis.
Statistical analysis was performed using SPSS for windows, standard version 10.0.7. Data are presented as mean±one standard deviation, unless otherwise noted, and statistical differences between the two study groups were tested by Chi-square and (two-sided) Fisher's Exact Test, where applicable, with significance being defined as p<0.05.

[2] = test system: patients with prior clomiphene citrate failures; settings: 47 patients, 75 mg daily DHEA at least 60 days prior to inseminations; cited from earlier work
[3] = Level of unconjugated DHEA under routine treatment protocol; assay type: in vivo, human; settings: 25 mg micronized pharmaceutical grade DHEA TID
Description: Routine treatment protocol involves administering about 25 mg of micronized, pharmaceutical grade DHEA, TID, to a human to uniformly raise levels of unconjugated DHEA above 350 ng/dl and, therefore, raise baseline testosterone. In six pregnancies spontaneously conceived, the distribution between female and male offspring was equal, at three and three, respectively. In contrast, in the remaining 15 offspring, which were products of pregnancies achieved through IVF, the distribution was 12 males and 3 females (p=0.035). Amongst women undergoing IVF and PGD, 53 embryos were analyzed from 17 IVF cycles, all having undergone ICSI.
The treatment protocol for long-term supplementation with DHEA that may improve oocyte and embryo quantity, quality, pregnancy rates and time to conception in women with diminished ovarian reserve, involves 25 mg of micronized, pharmaceutical grade DHEA, TID will usually uniformly raise levels of unconjugated DHEA above about 350 ng/dl, and, therefore, raise baseline testosterone. Estradiol baseline levels may also be raised.

[4] = test system: proven poor responders to ovarian stimulation with gonadotropins; settings: 80 mg micronized DHEA for two months; five poor responders, six IVF cycles; cited from earlier work
[5] = test system: person with prematurely aging ovaries; experiment: Case report: DHEA substitution in probable 17,20-desmolase deficiency (Patient B, Example 5); assay type: in vivo, human; settings: for Estradiol periovulatory: spontaneous ovulation
Description: (§1) In a further study, a case of probable 17, 20-desmolase deficiency, resulting in abnormally low estradiol, DHEA, androstenedione and testosterone levels, is presented in a person with a clinical history of, initially, unexplained infertility and, later, prematurely aging ovaries.
(§2) In July of 2003, the patient was started on 25 mg daily of micronized DHEA. After five weeks of treatment, DHEA, DHEA-S and androstenedione levels had normalized into mid-ranges. (Even though androstenedione is partially produced through the activity of 17,20-desmolase from 17-hydroxyprogesterone, part is also derived from DHEA through the activity of 3-beta hydroxysteroid dehydrogenase [Speroff et al., 1999a]. The normalization of androstenedione, after DHEA administration, therefore, also speaks for an underlying 17,20-desmolase defect, and not a 3-beta hydroxysteroid dehydrogenase deficiency.) In the third and fourth month, following the start of DHEA supplementation, the patient ovulated spontaneously with estradiol levels of 268 and 223 pg/ml (Table 2), respectively, measured on the day of LH surge.
(§3) On Jan. 28, 2004, and after DHEA therapy of approximately six months, a fourth IVF cycle was initiated. Their baseline FSH level in that cycle was 9.6 mIU/ml, estradiol 56 pg/ml. Stimulation took place with 300 IU of recombinant FSH (without hMG) and with an agonist flare protocol. […] A triplet pregnancy was established with heart beats. Two, out of the three fetuses lost heart beat spontaneously, and the patient delivered by cesarean section, at term, a healthy singleton infant.

[6] = as above; assay type: in vivo, human; settings: human, in vivo, oral, normal (130-980), read-out: DHEA level
Description: as §1, §2, §3

[7] = 3 women with DHEA and no-DHEA cycles, DHEA-treated cycle
[8] = DHEA-treated cycles n = 8, PGD by FISH
[9] = DHEA-treated cycles, at least one euploid embryo for transfer
[10] = January 2004, 4th IVF cycle start, DHEA approximately six months
[11] = fourth IVF cycle after DHEA therapy of approximately six months

C[C@]12CC[C@H](O)CC1=CC[C@@H]1[C@@H]2CC[C@]2(C)C(=O)CC[C@@H]12 [DHEA, Dehydroepiandrosterone]
Aneuploid Embryos [1, 7]: 2.0 ± 1.8
Oocytes ± SD [1, 7]: 6.0 ± 4.8
Total Embryos ± SD [1, 7]: 4.0 ± 2.7
Embryos ± SD (total number) ([1]; DHEA-treated cycles n = 8): 9.1 ± 7.3
Oocytes ± SD ([1]; DHEA-treated cycles n = 8): 10.4±7.3
Peak Estradiol ± SD ([1]; DHEA-treated cycles n = 8, 25 mg TID at least one month): 2310.3 ± 1108.1 pg/mL
% Aneuploid ± SD [1, 8]: 55.9 ± 37.8%
% Euploid ± SD [1, 8]: 44.1 ± 37.8%
n Aneuploid ± SD [1, 8]: 4.4 ± 3.0
n Euploid ± SD [1, 8]: 2.1 ± 1.4
Patients with euploid embryos (%) [1, 9]: 100%
Patients with euploid embryos (n/N) [1, 9]: 8/8
live births [2]: 21.3%
pregnancy rate [2]: 29.8%
levels of unconjugated DHEA [3]: above 350 ng/dl
response to ovarian stimulation compared with prior unsupplemented cycle [4]: improved responsiveness
Testosterone free ([5]; December 2003, on DHEA, normal (1-21)): 2 pg/mL
Testosterone free and weekly bound ([5]; December 2003, on DHEA, normal (3-29)): 4 ng/dL
Estradiol baseline [5, 10]: 56 pg/mL
FSH baseline [5, 10]: 9.6 mIU/ml
FSH ([5]; January 2004, on DHEA, first value): 18 mIU/ml
Androstenedione level ([5]; July 2003 after DHEA treatment start, normal (65-270)): 121 ng/dL
Estradiol ([5]; November 2003, on DHEA): 38 pg/mL
FSH ([5]; November 2003, on DHEA): 17 mIU/ml
Estradiol ([5]; October 2003, on DHEA): 44 pg/mL
FSH ([5]; October 2003, on DHEA): 14.7 mIUI/ml
Estradiol periovulatory ([5]; October 2003, on DHEA): 223 pg/mL and 224 pg/mL
Estradiol periovulatory ([5]; September 2003, on DHEA): 268 pg/mL
oocytes retrieved [5, 11]: 8
peak estradiol level [5, 11]: 1764 pg/mL
concentration at 5 months ([6]; 25 mg daily, December 2003, on DHEA): 278 ng/mL
concentration at 5 weeks ([6]; July 2003 after DHEA treatment start, 25 mg daily micronized): 2.96 ng/mL
